{"source": "ChEMBL document CHEMBL5352406", "about": "(Eur J Med Chem, 2022)", "key": {"[1]": {"experiment": "Acute toxicity in Kunming mouse assessed as survival at 46 mg/kg, po measured for 2 weeks", "type": "organism-based", "details": "in vivo"}, "[2]": {"biological_target": "CDK9/cyclin T1 (Homo sapiens) (UniProt O60563+P50750)", "experiment": "Inhibition of CDK9/CyclinT1 (unknown origin) at 500 nM by ADP-Glo kinase assay relative to control", "type": "protein-complex assay"}, "MCF7": {"system": "MCF7", "experiment": "Antiproliferative activity against human MCF7 cells assessed as cell growth inhibition after 72 hrs by MTT assay", "type": "functional"}, "HCT-116 [3]": {"system": "HCT-116", "experiment": "Antitumor activity against human HCT-116 cells xenografted in BALB/cA-nu mouse tumor model assessed as tumor weight growth inhibition at 10 mg/kg, intragastric administration for 21 days relative to control", "type": "functional", "details": "HCT-116, 504 h, route ig, time 21 day, read-out: TGI"}, "HCT-116 [4]": {"system": "HCT-116", "experiment": "Antitumor activity against human HCT-116 cells xenografted in BALB/cA-nu mouse tumor model assessed as tumor volume growth inhibition at 10 mg/kg, intragastric administration for 21 days relative to control", "type": "functional", "details": "HCT-116, 504 h, route ig, time 21 day, read-out: GI"}, "[5]": {"experiment": "AUC (0 to infinity) in Sprague-Dawley rat at 20 mg/kg, po", "type": "ADME, organism-based", "design": "dose 20 mg/kg, route po", "details": "in vivo"}, "[6]": {"biological_target": "Cyclin-dependent kinase 1/cyclin B1 (Homo sapiens) (UniProt P06493+P14635)", "sequence (P06493 whole entry, looked up)": "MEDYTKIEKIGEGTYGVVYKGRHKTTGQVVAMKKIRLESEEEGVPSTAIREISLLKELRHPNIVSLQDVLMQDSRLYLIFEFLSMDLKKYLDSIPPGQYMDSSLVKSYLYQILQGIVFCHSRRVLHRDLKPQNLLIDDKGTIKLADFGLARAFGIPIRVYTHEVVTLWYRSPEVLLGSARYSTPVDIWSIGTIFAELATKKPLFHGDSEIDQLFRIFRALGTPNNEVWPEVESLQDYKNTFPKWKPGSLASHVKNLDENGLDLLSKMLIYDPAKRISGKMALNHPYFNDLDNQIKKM", "sequence (P14635 whole entry, looked up)": "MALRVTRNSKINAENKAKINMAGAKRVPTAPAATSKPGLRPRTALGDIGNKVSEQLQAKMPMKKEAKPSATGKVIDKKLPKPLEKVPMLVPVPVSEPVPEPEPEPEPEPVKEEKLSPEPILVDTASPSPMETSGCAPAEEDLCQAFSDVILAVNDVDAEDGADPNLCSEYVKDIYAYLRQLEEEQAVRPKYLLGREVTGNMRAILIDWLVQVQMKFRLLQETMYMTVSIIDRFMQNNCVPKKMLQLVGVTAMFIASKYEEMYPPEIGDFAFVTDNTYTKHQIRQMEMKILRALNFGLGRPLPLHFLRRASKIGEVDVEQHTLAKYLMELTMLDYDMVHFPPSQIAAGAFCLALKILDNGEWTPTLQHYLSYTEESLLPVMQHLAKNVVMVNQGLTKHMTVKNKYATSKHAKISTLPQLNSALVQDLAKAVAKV", "details": "dose 500.0 nM", "description": "Inhibition of CDK1/Cyclin B1 (unknown origin) at 500 nM by ADP-Glo kinase assay relative to control"}, "[7]": {"experiment": "Cmax in Sprague-Dawley rat at 20 mg/kg, po", "type": "ADME, organism-based", "design": "dose 20 mg/kg, route po", "details": "in vivo"}, "SW480": {"system": "SW480", "experiment": "Antiproliferative activity against human SW480 cells assessed as cell growth inhibition after 72 hrs by MTT assay", "type": "functional"}, "[8]": {"experiment": "Oral bioavailability in Sprague-Dawley rat at 20 mg/kg", "type": "ADME, organism-based", "details": "in vivo"}, "[9]": {"biological_target": "CDK4/Cyclin D3 (Homo sapiens) (UniProt P11802+P30281)", "experiment": "Inhibition of CDK4/Cyclin D3 (unknown origin) at 500 nM by ADP-Glo kinase assay relative to control", "type": "protein-complex assay"}, "HCT-116 [10]": {"system": "HCT-116", "experiment": "Induction of apoptosis in human HCT-116 cells assessed as early apoptotic cells at 20 nM measured after 48 hrs by Annexin V-FITC/PI assay (reference value: 3.16%)", "type": "functional"}, "CDK9/cyclin T1": {"biological_target": "CDK9/cyclin T1 (Homo sapiens, UniProt P50750)", "sequence (O60563 whole entry)": "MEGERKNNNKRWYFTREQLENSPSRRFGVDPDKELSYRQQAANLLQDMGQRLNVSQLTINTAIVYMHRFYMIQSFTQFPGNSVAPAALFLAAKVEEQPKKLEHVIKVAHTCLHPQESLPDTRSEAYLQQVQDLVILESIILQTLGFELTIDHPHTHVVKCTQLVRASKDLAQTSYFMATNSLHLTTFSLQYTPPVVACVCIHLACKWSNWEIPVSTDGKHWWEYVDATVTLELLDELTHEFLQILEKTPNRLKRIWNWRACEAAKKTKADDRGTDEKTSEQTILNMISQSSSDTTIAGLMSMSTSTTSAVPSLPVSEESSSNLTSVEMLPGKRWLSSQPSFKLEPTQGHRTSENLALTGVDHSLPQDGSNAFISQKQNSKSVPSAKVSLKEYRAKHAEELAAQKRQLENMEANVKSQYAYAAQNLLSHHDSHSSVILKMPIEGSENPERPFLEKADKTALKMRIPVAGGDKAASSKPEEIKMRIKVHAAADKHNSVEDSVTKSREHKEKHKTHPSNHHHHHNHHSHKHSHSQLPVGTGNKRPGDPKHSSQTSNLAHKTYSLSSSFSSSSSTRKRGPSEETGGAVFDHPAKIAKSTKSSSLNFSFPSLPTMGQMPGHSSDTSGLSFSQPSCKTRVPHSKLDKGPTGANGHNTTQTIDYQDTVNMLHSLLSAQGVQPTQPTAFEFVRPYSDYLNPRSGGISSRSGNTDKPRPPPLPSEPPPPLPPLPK", "sequence (P50750 whole entry)": "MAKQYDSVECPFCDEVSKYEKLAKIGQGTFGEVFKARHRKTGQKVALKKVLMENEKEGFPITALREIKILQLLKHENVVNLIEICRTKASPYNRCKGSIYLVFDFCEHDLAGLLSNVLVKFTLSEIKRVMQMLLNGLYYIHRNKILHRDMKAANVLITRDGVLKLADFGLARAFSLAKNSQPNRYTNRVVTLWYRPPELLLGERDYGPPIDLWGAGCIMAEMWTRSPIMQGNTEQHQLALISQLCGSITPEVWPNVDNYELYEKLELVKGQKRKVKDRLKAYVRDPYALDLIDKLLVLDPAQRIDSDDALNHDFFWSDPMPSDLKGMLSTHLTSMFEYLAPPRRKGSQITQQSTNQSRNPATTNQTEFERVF", "description": "Inhibition of CDK9/CyclinT1 (unknown origin) by ADP-Glo kinase assay"}, "[11]": {"experiment": "Acute toxicity in Kunming mouse assessed as survival at 20 mg/kg, po measured for 2 weeks", "type": "organism-based", "details": "in vivo"}, "HCT-116 [12]": {"system": "HCT-116", "experiment": "Inhibition of colony formation in human HCT-116 cells treated for 24 hrs followed by replaced with fresh culture media for 10 days by Colony formation assay", "type": "functional, cell-based", "details": "dose 2-18 nM"}, "[13]": {"experiment": "Half life in Sprague-Dawley rat at 2 mg/kg, iv", "type": "ADME, organism-based", "details": "in vivo"}, "[14]": {"experiment": "Acute toxicity in Kunming mouse assessed as behavior change at 20 to 105 mg/kg, po measured for 2 weeks", "type": "organism-based", "details": "in vivo, 336 h, dose 20-105 mg/kg"}, "[15]": {"biological_target": "T1, Cyclin-dependent kinase 5/CDK5 activator 1 (Homo sapiens) (UniProt Q00535+Q15078)", "T1 sequence (Q00535 whole entry)": "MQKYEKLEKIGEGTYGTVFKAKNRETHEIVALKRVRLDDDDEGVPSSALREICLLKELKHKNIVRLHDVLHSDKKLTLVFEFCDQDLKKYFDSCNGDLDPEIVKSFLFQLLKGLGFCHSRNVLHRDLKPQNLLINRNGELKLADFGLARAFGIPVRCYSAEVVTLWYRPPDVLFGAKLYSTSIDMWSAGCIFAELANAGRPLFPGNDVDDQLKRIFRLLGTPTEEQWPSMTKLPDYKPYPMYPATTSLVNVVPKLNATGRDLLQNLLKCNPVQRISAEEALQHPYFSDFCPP", "T1 sequence (Q15078 99-307 partner limits assumed)": "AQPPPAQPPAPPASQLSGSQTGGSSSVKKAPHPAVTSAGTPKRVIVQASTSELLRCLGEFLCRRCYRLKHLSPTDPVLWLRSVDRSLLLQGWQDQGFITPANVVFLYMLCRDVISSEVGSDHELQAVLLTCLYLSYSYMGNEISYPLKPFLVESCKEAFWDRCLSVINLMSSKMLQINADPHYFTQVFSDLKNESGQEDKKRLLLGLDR", "experiment": "Inhibition of CDK5/p35 NCK (unknown origin) at 500 nM by ADP-Glo kinase assay relative to control", "type": "protein-complex assay"}, "[16]": {"experiment": "Acute toxicity in po dosed Kunming mouse assessed as survival measured for 2 weeks", "type": "organism-based", "details": "in vivo"}, "[17]": {"experiment": "Toxicity in BALB/cA-nu mouse xenografted with human HCT116 cells assessed as liver injury by measuring AST level at 10 mg/kg, intragastric administration for 21 days", "type": "organism-based, HCT-116", "details": "in vivo, po, 504 h, time 21 day"}, "Acetylcholinesterase": {"biological_target": "Acetylcholinesterase (Electrophorus electricus, UniProt O42275)", "sequence (O42275 whole entry)": "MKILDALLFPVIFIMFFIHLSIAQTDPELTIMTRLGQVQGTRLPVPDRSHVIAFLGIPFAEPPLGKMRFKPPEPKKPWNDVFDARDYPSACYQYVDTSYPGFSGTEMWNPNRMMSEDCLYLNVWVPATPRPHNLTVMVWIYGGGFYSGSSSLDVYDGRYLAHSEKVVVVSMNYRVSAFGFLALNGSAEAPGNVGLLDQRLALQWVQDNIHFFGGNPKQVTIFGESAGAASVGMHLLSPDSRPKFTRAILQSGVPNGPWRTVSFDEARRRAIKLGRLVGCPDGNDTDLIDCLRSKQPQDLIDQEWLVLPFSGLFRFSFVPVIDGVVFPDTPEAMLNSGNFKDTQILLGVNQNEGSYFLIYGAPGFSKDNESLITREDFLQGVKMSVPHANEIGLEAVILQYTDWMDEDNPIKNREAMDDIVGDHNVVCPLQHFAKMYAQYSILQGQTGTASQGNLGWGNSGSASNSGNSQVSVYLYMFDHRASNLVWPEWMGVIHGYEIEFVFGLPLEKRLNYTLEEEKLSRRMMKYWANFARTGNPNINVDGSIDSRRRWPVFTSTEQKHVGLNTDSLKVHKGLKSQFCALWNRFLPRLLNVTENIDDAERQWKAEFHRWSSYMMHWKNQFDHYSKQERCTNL", "experiment": "Inhibition of electric eel AChE using acetylthiocholine […] as substrate for 20 mins by Ellman's method"}, "HCT-116 [18]": {"system": "HCT-116", "experiment": "Cell cycle arrest in human HCT-116 cells assessed as accumulation of cells at G0-G1 phase at 10 nM measured after 48 hrs by flow cytometry (reference value: 62.18%)", "type": "functional"}, "[19]": {"biological_target": "T1, Cyclin-dependent kinase 5/CDK5 activator 1 (Homo sapiens)", "experiment": "Inhibition of CDK5/p25 NCK (unknown origin) at 500 nM by ADP-Glo kinase assay relative to control", "type": "protein-complex assay"}, "[20]": {"biological_target": "CDK3/Cyclin E (Homo sapiens) (UniProt P24864+Q00526)", "sequence (P24864 whole entry, looked up)": "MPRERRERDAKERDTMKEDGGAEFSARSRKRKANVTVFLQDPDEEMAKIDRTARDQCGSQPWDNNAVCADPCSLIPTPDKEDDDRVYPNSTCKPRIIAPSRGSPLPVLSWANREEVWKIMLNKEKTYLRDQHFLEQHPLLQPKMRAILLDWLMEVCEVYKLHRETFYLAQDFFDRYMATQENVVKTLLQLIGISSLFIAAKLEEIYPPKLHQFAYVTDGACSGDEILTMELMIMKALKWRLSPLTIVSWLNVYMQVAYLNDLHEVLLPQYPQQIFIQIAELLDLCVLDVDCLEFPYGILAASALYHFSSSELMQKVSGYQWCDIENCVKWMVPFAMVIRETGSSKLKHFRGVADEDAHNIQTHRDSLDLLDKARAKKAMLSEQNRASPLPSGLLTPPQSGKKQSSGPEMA", "sequence (Q00526 whole entry, looked up)": "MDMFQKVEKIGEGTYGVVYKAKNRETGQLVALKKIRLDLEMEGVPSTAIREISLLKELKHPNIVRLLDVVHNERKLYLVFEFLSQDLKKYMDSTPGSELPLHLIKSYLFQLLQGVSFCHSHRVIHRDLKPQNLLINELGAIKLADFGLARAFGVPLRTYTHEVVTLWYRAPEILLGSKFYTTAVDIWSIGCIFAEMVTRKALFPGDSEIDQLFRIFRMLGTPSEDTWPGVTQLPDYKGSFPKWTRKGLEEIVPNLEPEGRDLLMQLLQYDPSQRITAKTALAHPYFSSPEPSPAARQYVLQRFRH", "experiment": "Inhibition of CDK3/Cyclin E1 (unknown origin) at 500 nM by ADP-Glo kinase assay relative to control", "type": "protein-complex assay"}, "[21]": {"experiment": "Clearance in Sprague-Dawley rat at 2 mg/kg, iv", "type": "ADME, organism-based", "details": "in vivo"}, "HCT-116 [22]": {"system": "HCT-116", "experiment": "Induction of apoptosis in human HCT-116 cells assessed as early apoptotic cells at 10 nM measured after 48 hrs by Annexin V-FITC/PI assay (reference value: 3.16%)", "type": "functional"}}, "data": [{"smiles": "Cl.N[C@H]1CCN(c2c3c(nc4ccc(-c5ccnc(NC(=O)C6CC6)n5)cc24)CCCCC3)C1", "values": [{"measurement": "survival at 336 h", "setting": "[1]", "result": 100, "unit": "%"}, {"measurement": "inhibition", "setting": "[2]", "result": 99.8, "unit": "%"}, {"measurement": "GI50", "setting": "MCF7", "result": 6, "unit": "nM"}, {"measurement": "inhibition in vivo at 10 mg/kg", "setting": "HCT-116 [3]", "result": 62.4, "unit": "%"}, {"measurement": "inhibition in vivo at 10 mg/kg", "setting": "HCT-116 [4]", "result": 47.7, "unit": "%"}, {"measurement": "AUC(0-inf)", "setting": "[5]", "result": 0.316, "unit": "µg·h/mL"}, {"measurement": "inhibition", "setting": "[6]", "result": 77.3, "unit": "%"}, {"measurement": "Cmax", "setting": "[7]", "result": 0.0678, "unit": "µg/mL"}, {"measurement": "GI50", "setting": "SW480", "result": 13, "unit": "nM"}, {"measurement": "bioavailability", "setting": "[8]", "result": 27.5, "unit": "%"}, {"measurement": "inhibition", "setting": "[9]", "result": 29.4, "unit": "%"}, {"measurement": "Activity", "setting": "HCT-116 [10]", "result": 32.6, "unit": "%"}, {"measurement": "IC50", "setting": "CDK9/cyclin T1", "result": 2.41, "unit": "nM"}, {"measurement": "survival at 336 h", "setting": "[11]", "result": 100, "unit": "%"}, {"measurement": "inhibition", "setting": "HCT-116 [12]", "result": "Dose-Dependent Effect"}, {"measurement": "half-life", "setting": "[13]", "result": 27.7, "unit": "min"}, {"measurement": "Activity", "setting": "[14]", "result": "Non-Toxic"}, {"measurement": "inhibition", "setting": "[15]", "result": 41.4, "unit": "%"}, {"measurement": "LD50 at 336 h", "setting": "[16]", "result": 104, "unit": "mg/kg"}, {"measurement": "Activity", "setting": "[17]", "result": "Non-Toxic"}, {"measurement": "IC50", "setting": "Acetylcholinesterase", "result": 19000, "unit": "nM"}, {"measurement": "Activity", "setting": "HCT-116 [18]", "result": 46.65, "unit": "%"}, {"measurement": "inhibition", "setting": "[19]", "result": 64.5, "unit": "%"}, {"measurement": "inhibition", "setting": "[20]", "result": 65.5, "unit": "%"}, {"measurement": "clearance", "setting": "[21]", "result": 18.7, "unit": "L/h/kg"}, {"measurement": "Activity", "setting": "HCT-116 [22]", "result": 16.3, "unit": "%"}]}]}
